Measured values as given in PubChem BioAssay AID192 (DTP/NCI, 2004).
Inconclusive results and toxic doses are left out.

Test system: BDF1 mice, B16 melanoma ip, median survival T/C
Test: NCI In Vivo Anticancer Drug Screen. Data for tumor model B16 Melanoma (intraperitoneal) in B6D2F1 (BDF1) mice
Settings: endpoint: median survival time, higher = longer survival
Method in brief: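 The ratio T/C compares compound-treated mice with vehicle-treated controls, using survival or tumor size as the endpoint in a transplantable tumor model.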

[1] = dose: 12.5 mg/kg/injection, schedule: Q01DX009 (ip), vehicle: Klucel (hydroxypropylcellulose) (HPC)
[2] = dose: 12.5 mg/kg/injection, schedule: Q01DX009 (ip), vehicle: saline with Tween-80
[3] = dose: 25.0 mg/kg/injection, schedule: Q01DX009 (ip), vehicle: Klucel (hydroxypropylcellulose) (HPC)

CN(C)CC/C=C1\c2ccccc2Sc2ccc(Cl)cc21
T/C (dose: 0.12 mg/kg/injection, schedule: Q01DX009 (ip), vehicle: Klucel (hydroxypropylcellulose) (HPC)): 95 % of control
T/C (dose: 0.24 mg/kg/injection, schedule: Q01DX009 (ip), vehicle: Klucel (hydroxypropylcellulose) (HPC)): 86 % of control
T/C (dose: 0.48 mg/kg/injection, schedule: Q01DX009 (ip), vehicle: Klucel (hydroxypropylcellulose) (HPC)): 88 % of control
T/C (dose: 1.95 mg/kg/injection, schedule: Q01DX009 (ip), vehicle: Klucel (hydroxypropylcellulose) (HPC)): 86 % of control
T/C (dose: 7.0 micrograms/kg/injection, schedule: Q01DX009 (ip), vehicle: Klucel (hydroxypropylcellulose) (HPC)): 105 % of control
T/C (dose: 15.0 micrograms/kg/injection, schedule: Q01DX009 (ip), vehicle: Klucel (hydroxypropylcellulose) (HPC)): 107 % of control
T/C (dose: 30.0 micrograms/kg/injection, schedule: Q01DX009 (ip), vehicle: Klucel (hydroxypropylcellulose) (HPC)): 105 % of control
T/C (dose: 60.0 micrograms/kg/injection, schedule: Q01DX009 (ip), vehicle: Klucel (hydroxypropylcellulose) (HPC)): 105 % of control
T/C (dose: 120.0 micrograms/kg/injection, schedule: Q01DX009 (ip), vehicle: Klucel (hydroxypropylcellulose) (HPC)): 98 % of control

O=S(=O)(O)C(Nc1ccccc1)c1ccccc1 (stereo unspecified)
T/C (dose: 100.0 mg/kg/injection, schedule: Q01DX009 (ip), vehicle: saline sonified): 93 % of control
T/C (dose: 200.0 mg/kg/injection, schedule: Q01DX009 (ip), vehicle: saline sonified): 93 % of control
T/C (dose: 400.0 mg/kg/injection, schedule: Q01DX009 (ip), vehicle: saline sonified): 102 % of control

C=C(C)C1CCC2(C=O)CCC3(C)C(CCC4C5(C)CCC(O)C(C)(C)C5CCC43C)C12 (stereo unspecified)
T/C (dose: 18.75 mg/kg/injection, schedule: Q01DX009 (ip), vehicle: Klucel (hydroxypropylcellulose) (HPC)): 94 % of control
T/C (dose: 75.0 mg/kg/injection, schedule: Q01DX009 (ip), vehicle: Klucel (hydroxypropylcellulose) (HPC)): 97 % of control

COc1cc(C=O)cc(O)c1O
T/C (dose: 100.0 mg/kg/injection, schedule: Q01DX009 (ip), vehicle: saline): 95 % of control
T/C (dose: 200.0 mg/kg/injection, schedule: Q01DX009 (ip), vehicle: saline): 111 % of control

Cc1ccc2nc(-c3ccc(N=Cc4ccccc4O)cc3)sc2c1
T/C (dose: 25.0 mg/kg/injection, schedule: Q01DX009 (ip), vehicle: olive oil, sesame oil, peanut oil): 87 % of control
T/C (dose: 50.0 mg/kg/injection, schedule: Q01DX009 (ip), vehicle: olive oil, sesame oil, peanut oil): 86 % of control

O=C(/C=C/C(=O)Oc1c(Cl)cc(Cl)cc1Cl)Oc1c(Cl)cc(Cl)cc1Cl
T/C (dose: 100.0 mg/kg/injection, schedule: Q04DX003 (ip), vehicle: Klucel (hydroxypropylcellulose) (HPC)): 95 % of control
T/C (dose: 200.0 mg/kg/injection, schedule: Q04DX003 (ip), vehicle: Klucel (hydroxypropylcellulose) (HPC)): 92 % of control
T/C (dose: 400.0 mg/kg/injection, schedule: Q04DX003 (ip), vehicle: Klucel (hydroxypropylcellulose) (HPC)): 95 % of control

COc1cc(C(=O)O)c2c(c1C)OC(=O)c1c(C)cc(O)c(C=O)c1O2
T/C (dose: 1.39 mg/kg/injection, schedule: Q01DX009 (ip), vehicle: saline with Tween-80): 97 % of control
T/C (dose: 2.78 mg/kg/injection, schedule: Q01DX009 (ip), vehicle: saline with Tween-80): 99 % of control
T/C (dose: 5.56 mg/kg/injection, schedule: Q01DX009 (ip), vehicle: saline with Tween-80): 110 % of control
T/C (dose: 6.25 mg/kg/injection, schedule: Q01DX009 (ip), vehicle: Klucel (hydroxypropylcellulose) (HPC)): 111 % of control
T/C (dose: 11.0 mg/kg/injection, schedule: Q01DX009 (ip), vehicle: saline with Tween-80): 158 % of control
T/C [1]: 117 % of control
T/C [2]: 150 % of control
T/C [3]: 122 % of control
T/C (dose: 25.0 mg/kg/injection, schedule: Q01DX009 (ip), vehicle: saline with Tween-80): 160 % of control
T/C (dose: 25.0 mg/kg/injection, schedule: Q04DX003 (ip), vehicle: saline with Tween-80): 113 % of control
T/C (dose: 50.0 mg/kg/injection, schedule: Q04DX003 (ip), vehicle: saline with Tween-80): 105 % of control

C[Se]c1ncnc2c1c(C#N)cn2C1OC(CO)C(O)C1O (stereo unspecified)
T/C (dose: 3.12 mg/kg/injection, schedule: Q01DX009 (ip), vehicle: Klucel (hydroxypropylcellulose) (HPC)): 92 % of control
T/C [1]: 97 % of control
T/C [3]: 90 % of control

NNC(=O)c1ccc(N)cc1
T/C (dose: 50.0 mg/kg/injection, schedule: Q01DX009 (ip), vehicle: saline with Tween-80): 112 % of control
T/C (dose: 100.0 mg/kg/injection, schedule: Q01DX009 (ip), vehicle: saline with Tween-80): 102 % of control
T/C (dose: 200.0 mg/kg/injection, schedule: Q01DX009 (ip), vehicle: saline with Tween-80): 97 % of control

CCC(CC)COC(=O)c1ccccc1C(=O)OCC(CC)CC
T/C [2]: 87 % of control

CCCCCCCCN(C)/N=N/c1nc[nH]c1C(N)=O
T/C (dose: 37.5 mg/kg/injection, schedule: Q01DX009 (ip), vehicle: saline with Tween-80): 121 % of control
T/C (dose: 75.0 mg/kg/injection, schedule: Q01DX009 (ip), vehicle: saline with Tween-80): 123 % of control
